Laboratory results as given in US20120220577A1, “GLYCINE B ANTAGONISTS” (Merz Pharma GmbH & Co KgaA, priority 2009, published 2012).

Assays:
[1] = target: T1, glycine binding pocket of the NMDA receptor (Rattus norvegicus, UniProt P35439); test: [3H]MDL-105,519 displacement studies (rat cortical membranes); conditions: displacement of 2 nM [3H]-MDL-105,519, rat cortical membranes; read-out: NMDA-MDL 105519-r-CTX - IC50
T1 construct: For isolation of the cell membranes, the cortices are homogenized; from tissue; host or cells: rat cerebral cortex membranes (male Sprague-Dawley)

[2] = target: T2, NMDA receptor glycine B site (Rattus norvegicus, UniProt P35439); test: Whole cell patch-clamp recordings, rat hippocampal neurons (NMDA/D-Serine currents); type: cell-based; conditions: NMDA 200 μM + D-Serine 1 μM, -70 mV, read-out: NMDA-PC-r-HIC-NAM - IC50
Description: (§1) Antagonistic potencies of the test compounds are functionally evaluated using electrophysiological whole cell patch-clamp recordings and/or fluorometric intracellular Ca^2+-imaging (FLIPR) screens.
Cell preparation is performed as described by Parsons, et al. (Neuropharmacology, 1998, 37(6), 719-727). The female Sprague-Dawley rat is anaesthetised by placing in a saturated CO2-euthanasia chamber under further quiet CO2-influx. Under these conditions the rat loses consciousness after a few seconds and is then sacrificed by cervical dislocation. After opening the abdominal cavity, embryos (E20) are removed and stored in ice cold Ca^2+- and Mg^2+-free Hank's Buffered Salt Solution (pH 7.3), containing 4 g/l glucose (HBSS-CMF). Hippocampi are then isolated from the brains of at least 8 embryos after decapitation, transferred into ice cold HBSS-CMF and washed 3 to 4 times.
Hippocampi are pre-incubated for 8 min with a 0.66% trypsin (Sigma-Aldrich) and 0.1% (20 U/ml) DNAase solution (Sigma-Aldrich) in Ca^2+-free Phosphate Buffered Saline (PBS-CF) and washed 3 times with HBSS-CMF. Cells are then mechanically dissociated by trituration in a PBS-CF solution containing 0.05% (10 U/ml) DNAase and 0.3% of the trypsin inhibitor ovomucoid (all from Sigma-Aldrich). The cells are then centrifuged at 180×g for 10 minutes, and the cell pellet re-suspended in basal Minimum essential medium (MEM, Invitrogen, Karlsruhe, Germany), again carefully triturated to ensure maximal dissociation and finally plated in the flexiPERM inserts (Thermo Fisher Scientific, Langenselbold, Germany) at a density of 15×10^3 cells/cm^2 (0.5 ml/insert) onto poly-DL-ornithine (Sigma) and mouse laminin (Invitrogen) pre-coated plastic petri dishes. After 1 hour the cells become attached to the bottom of the dish and the inserts may be removed. The cells are then nourished with 2 ml MEM supplemented with 5% foetal calf serum (FCS) and 5% horse serum and incubated at 37° C. with 95% air and 5% CO2 at 95% humidity. After 4 days in vitro (DIV) further glial mitosis is inhibited by adding 10 μl of AraC (5 μM endconcentration). The medium is completely exchanged after an additional 2 DIV and again, but only partly (50%), after 8 DIV. The cells are used for electrophysiological recordings after 11-15 DIV.
Cells are visualised using an inverted microscope and selected for patching based upon their position and morphology. Voltage clamp recordings are made in the whole cell configuration of the patch clamp technique at a holding potential of −70 mV with the aid of an EPC-10 amplifier in combination with pipette manipulator. Patch clamp pipettes are pulled from borosilicate glass using a horizontal puller (P-97 Puller, Sutter Instruments, USA) and, when filled with intracellular solution, have resistances of 1-4 MΩ.
Solutions are delivered via a home-made gravity driven very fast perfusion system (<10 ms) including valves to switch flow on and off in combination with a stepper motor-driven double-barrelled theta glass application pipette in order to expose cells to either agonist-free or agonist-containing solutions in presence or absence of antagonist.
The intracellular solution used consists of: 120 mM CsCl, 10 mM EGTA, 1 mM MgCl2, 200 μM CaCl2, 10 mM glucose and 22 mM tetraethyl ammonium chloride (TEA-CL). The corresponding extracellular bath solution contains: 140 mM NaCl, 3 mM KCl, 10 mM glucose, 10 mM HEPES, 1.5 mM CaCl2 and 4.5 mM sucrose (all from Sigma-Aldrich) pH 7.3, and is supplemented with 0.3 μM tetrodotoxin (TTX, Tocris, Bristol, U.K.) to block voltage-activated sodium channels and 0.25 μM bicuculline (Sigma-Aldrich) to block GABAA receptors. […]

[3] = target: T2, NMDA receptor glycine B site; test: Calcium FLIPR studies, rat cortical neurons (NMDA/D-Serine induced intracellular calcium); type: cell-based; parameters: Primary neurons are prepared from cortices of embryonal rats at day 17 of pregnancy; endogenous in cells; host or cells: primary rat cortical neurons (E17, 11-13 DIV); conditions: rat cortical neurons; stimulation with 30 μM NMDA and 1 μM D-Serine; antagonist pre-incubated 10 min; read-out: NMDA-FLIPR-rCTX-NAM - IC50
Description: as §1
Sprague-Dawley rat embryos (E 17) are decapitated and neocortices are dissected, trypsinized and carefully triturated. The cell suspension is plated on poly-D-lysine pre-coated 96-well Plates (Greiner, Frickenhausen, Germany) at a cell density of 55.000 cells/well. The neurons are cultivated in Neurobasal media containing B27-Supplement and […] L-Glutamine (Biochrom) at 37° C. in a humidified atmosphere of 5% CO2/95% air. Medium is exchanged completely at day 4 and to 50% on day 7. At the time of experiments neurons are 11-13 days in vitro.
The increase of intracellular calcium after stimulation with 30 μM NMDA and 1 μM D-Serine is measured using the fluorometric imaging plate reader (FLIPR) and the Calcium-4-Kit (both Molecular Devices, Ismaning, Germany). Prior to addition of agonist or antagonist (5 different concentrations, n=5) the medium is aspirated and cells are washed once before loading with 150 μL of loading buffer (1 h at room temperature), consisting of Ca-4 sensitive dye reconstituted in extracellular bath solution, pH 7.3. Subsequently, plates are transferred to FLIPR to detect increases in intracellular calcium after the addition of agonist, measured as relative fluorescence units (RFU). Antagonists are pre-incubated with the cells for 10 min at room temperature before the addition of the agonist and co-agonist.
The fluorescence signal increase after addition of agonist reflects the increase of intracellular calcium. Inconsistencies in the amount of cells per well are normalised by using the spatial uniformity correction of the FLIPR software (Screenworks, Molecular Devices). The mean of replicated temporal data (n=5) is calculated and used for graphical representation. For the evaluation of the antagonistic potency, the calcium changes in response to different concentrations of antagonist are determined using an area under the curve (AUC) calculation. All responses (RFU-values) are determined as percentage of control (=maximum response at 30 μM NMDA and 1 μM D-Serine). IC50 values are calculated according the four parameter logistic equation using GraFit (Erithacus Software).

SMILES	IC50 [1] [µM]	IC50 [2] [µM]	IC50 [3] [µM]	melting point
O=C(COc1cc(C(=O)O)cc2cc(Cl)cc(Cl)c12)Nc1ccc(O)cc1 [Example 8, 5,7-Dichloro-4-[(4-hydroxyphenylcarbamoyl)-methoxy]-naphthalene-2-carboxylic acid]	1.85	0.287		
O=C(COc1cc(C(=O)O)cc2cc(Cl)cc(Cl)c12)Nc1cccc(OCC(=O)N2CCOCC2)c1 [Example 47, 5,7-Dichloro-4-{[3-(2-morpholin-4-yl-2-oxo-ethoxy)-phenylcarbamoyl]-methoxy}-naphthalene-2-carboxylic acid]	0.218	0.087		
O=C(O)COc1ccc(NC(=O)COc2cc(C(=O)O)cc3cc(Cl)cc(Cl)c23)c(OCC(=O)O)c1 [Example 83, 4-[(2,4-Bis-carboxymethoxy-phenylcarbamoyl)-methoxy]-5,7-dichloro-naphthalene-2-carboxylic acid]	0.252		1.32	> 220 °C (dec.)
O=C(COc1cc(C(=O)O)cc2cc(Cl)cc(Cl)c12)Nc1ccccc1-c1nnn[nH]1 [Example 85, 5,7-Dichloro-4-{[2-(1H-tetrazol-5-yl)-phenylcarbamoyl]-methoxy}-naphthalene-2-carboxylic acid]	0.233		0.93	247 to 248 °C
O=C(O)COc1ccc(CO)cc1NC(=O)COc1cc(C(=O)O)cc2cc(Cl)cc(Cl)c12 [Example 94, 4-[(2-Carboxymethoxy-5-hydroxymethyl-phenylcarbamoyl)-methoxy]-5,7-dichloro-naphthalene-2-carboxylic acid]	0.15		1.05	185 to 187 °C (dec.)
O=C(O)CCc1cccc(NC(=O)COc2cc(C(=O)O)cc3cc(Cl)cc(Cl)c23)c1 [Example 96, 4-{[3-(2-Carboxy-ethyl)-phenylcarbamoyl]-methoxy}-5,7-dichloro-naphthalene-2-carboxylic acid]	0.393		5.82	> 230 °C (dec.)
O=C(COc1cc(C(=O)O)cc2cc(Cl)cc(Cl)c12)NCc1ccccn1 [Example 103, 5,7-Dichloro-4-{[(pyridin-2-ylmethyl)-carbamoyl]-methoxy}-naphthalene-2-carboxylic acid]	0.43		8.55	> 240 °C (dec.)
